# Measurements reported in patent US20250154525A1, “PLANT VIRUS MOVEMENT PROTEINS AND METHODS OF USING SAME” (Molecular Transfer, Inc., priority 2016, published 2025).
# Tested on: C2C12 Cells
# Test: GFP plasmid transfection with DOTMA/DOPE plus surface ligand peptide, fluorescent plate reader (Example 1)
# Type: cell-based, mouse
# Conditions: DOTMA/DOPE + peptide linked to R12 or K16; EF1Alpha eGFP plasmid; 42 hours
# Method: (§1) Cells were plated to so that on the day of transfection the cells were 70% confluent in 96 well tissue culture plates. A DOMTA/DOPE Lipid solution (1:1 molar ratio) at 2 mg/mL in water were mixed with an equal volume cell surface ligand containing adhesion peptide, the plant virus movement protein, or peptide derived therefrom, that had the nucleic acid binding moiety RRRRRRRRRRRR (SEQ ID NO:109) or KKKKKKKKKKKKKKKK (SEQ ID NO: 102) covalently linked to the N-terminus, or C-terminus of each peptide during peptide synthesis. Peptides were at 2 mg/mL in water. The DOTMA/DOPE and the solution containing the cell surface ligand containing adhesion peptide, the plant virus movement protein, or peptide derived therefrom, surface ligand peptide the was diluted 1 to 1 (v/v) in water. DOMTA/DOPE/PEPTIDE solutions were added to 0.1 mL of a plasmid DNA solution (EF1Alpha eGFP plasmid) at 10 μg/mL in OptiMEM.
# (§2) All solutions were at room temperature. A volume of 0.2 mL of a 10 μg/mL solution of DNA was aliquoted into each well of a non-tissue cultured treated plate. 1-12 μL of transfection reagents were added to DNA solutions respectively. The transfection reagent and DNA solution was mixed by pipetting up and down twice. Transfection complexes were formed for 10 minutes. After 10 minutes, 0.01 or 0.02 mL of the transfection complex was added to cells. HuVEC, HeLa, human adult keratinocytes, human primary adult fibroblast, and A549 cells all respectively received 0.01 mL of the transfection complex. Human skeletal muscle cells, mouse C2C12 cells, and Jurkat, cells received 0.02 mL of the transfection complex. Cells were incubated for 42 hours at 37° C. at 5% CO2. Plates were read on a fluorescent plate reader. Cells were also examined visually under a microscope to assess the extent of transfection (in terms of the percent of cells transfected) with a fluorescent microscope. Other modes of analysis, for example quantification with B-galactocidase or luciferase reports plasmids can also be used.
# (§3) Surface ligand that caused increase expression of GFP over the lipid DOTMA with no surface ligand were considered to enhance transfection or had higher % cells transfected were considered to enhance transfection. Peptides that gave greater than 2-fold enhancement are noted in bold and could be further optimized by adding different transfection enhancers or could be used with different cationic lipids or polymers.
# (§4) Tables 2-7, below, provide the results of the transfection enhancements with the various cell types, while Table 8 lists the peptides that were determined by visual inspection to enhance the transfection of the denoted cell lines over the lipid DOTMA.
row,Substance,Relative Fluorescence of Transfection of C2C12 Cells (RF)
1,354 (SINNTAVMQRLT) [compound 354],1912
2,220 (ATETTITIS) [compound 220],1470
3,338 (GTPGPQGIA) [compound 338],2290
4,327 (VAEIDGIEL) [compound 327],2043
5,345 (TAGSCLRKFSTMFLF) [compound 345],6569
6,332 (TWYKIAFQRNRK) [compound 332],537
7,352 (RIQNLLKITNLRIKFVK) [compound 352],3324

# Tested on: HeLa Cells
# Test: as above
# Type: cell-based
# Conditions: DOTMA/DOPE + peptide linked to R12 or K16; EF1Alpha eGFP plasmid; 42 hours
# Method: as §1, §2, §3, §4
row,Substance,Relative Fluorescence of Transfection of HeLa Cells (RF)
1,354 (SINNTAVMQRLT) [compound 354],4403
2,220 (ATETTITIS) [compound 220],9398
3,338 (GTPGPQGIA) [compound 338],6241
4,327 (VAEIDGIEL) [compound 327],5345
5,345 (TAGSCLRKFSTMFLF) [compound 345],8493
6,332 (TWYKIAFQRNRK) [compound 332],9198
7,352 (RIQNLLKITNLRIKFVK) [compound 352],32126

# Tested on: Human Fibroblast Cells
# Test: as above
# Type: cell-based
# Conditions: DOTMA/DOPE + peptide linked to R12 or K16; EF1Alpha eGFP plasmid; 42 hours
# Method: as §1, §2, §3, §4
row,Substance,Relative Fluorescence of Transfection of Human Fibroblast Cells (RF)
1,354 (SINNTAVMQRLT) [compound 354],4998
2,220 (ATETTITIS) [compound 220],4516
3,338 (GTPGPQGIA) [compound 338],5625
4,327 (VAEIDGIEL) [compound 327],4662
5,345 (TAGSCLRKFSTMFLF) [compound 345],2816
6,332 (TWYKIAFQRNRK) [compound 332],5178
7,352 (RIQNLLKITNLRIKFVK) [compound 352],3059

# Tested on: HuVec Cells
# Test: as above
# Type: cell-based
# Conditions: DOTMA/DOPE + peptide linked to R12 or K16; EF1Alpha eGFP plasmid; 42 hours
# Method: as §1, §2, §3, §4
row,Substance,Relative Fluorescence of Transfection of HuVec Cells (RF)
1,354 (SINNTAVMQRLT) [compound 354],19284
2,220 (ATETTITIS) [compound 220],8737
3,338 (GTPGPQGIA) [compound 338],12000
4,327 (VAEIDGIEL) [compound 327],21018
5,345 (TAGSCLRKFSTMFLF) [compound 345],2939
6,332 (TWYKIAFQRNRK) [compound 332],4221
7,352 (RIQNLLKITNLRIKFVK) [compound 352],3130

# Tested on: Jurkat Cells
# Test: as above
# Type: cell-based
# Conditions: DOTMA/DOPE + peptide linked to R12 or K16; EF1Alpha eGFP plasmid; 42 hours
# Method: as §1, §2, §3, §4
row,Substance,Relative Fluorescence of Transfection of Jurkat Cells (RF)
1,354 (SINNTAVMQRLT) [compound 354],16705
2,220 (ATETTITIS) [compound 220],6428
3,338 (GTPGPQGIA) [compound 338],4475
4,327 (VAEIDGIEL) [compound 327],14546
5,345 (TAGSCLRKFSTMFLF) [compound 345],2462
6,332 (TWYKIAFQRNRK) [compound 332],3052
7,352 (RIQNLLKITNLRIKFVK) [compound 352],3150

# Tested on: NL-1 iPS Cells
# Test: as above
# Type: cell-based
# Conditions: DOTMA/DOPE + peptide linked to R12 or K16; EF1Alpha eGFP plasmid; 42 hours
# Method: as §1, §2, §3, §4
row,Substance,Relative Fluorescence of Transfection of NL-1 iPS Cells (RF)
1,354 (SINNTAVMQRLT) [compound 354],24043
2,220 (ATETTITIS) [compound 220],15892
3,338 (GTPGPQGIA) [compound 338],17288
4,327 (VAEIDGIEL) [compound 327],31383
5,345 (TAGSCLRKFSTMFLF) [compound 345],7836
6,332 (TWYKIAFQRNRK) [compound 332],8725
7,352 (RIQNLLKITNLRIKFVK) [compound 352],11628

# Tested on: some examined cell types
# Test: Summary of Example 1: transfection expression and % cells transfected over the no peptide control
# Type: cell-based
# Conditions: on some examined cell types
# Method: as §1, §2, §3
row,Substance,transfection expression and % cells transfected over the no peptide control
1,354 (SINNTAVMQRLT) [compound 354],increased transfection expression and the % cells transfected
2,220 (ATETTITIS) [compound 220],increased transfection expression and the % cells transfected
3,338 (GTPGPQGIA) [compound 338],increased transfection expression and the % cells transfected
4,327 (VAEIDGIEL) [compound 327],increased transfection expression and the % cells transfected
5,345 (TAGSCLRKFSTMFLF) [compound 345],increased transfection expression and the % cells transfected
6,332 (TWYKIAFQRNRK) [compound 332],increased transfection expression and the % cells transfected
7,352 (RIQNLLKITNLRIKFVK) [compound 352],increased transfection expression and the % cells transfected
